Experimental data as given in ChEMBL document CHEMBL2375319, “Design, synthesis and structure-activity relationships of 3,5-diaryl-1H-pyrazoles as inhibitors of arylamine N-acetyltransferase” (Bioorg Med Chem Lett, 2013).
In brackets after ≈: the same amount, converted by molar mass.

Assays:
[1] = Inhibition of Mycobacterium marinum recombinant arylamine N-acetyltransferase-mediated acetyl coA hydrolysis by DTNB-based spectrophotometric analysis
[2] = Inhibition of Mycobacterium marinum recombinant arylamine N-acetyltransferase-mediated acetyl coA hydrolysis at 30 uM by DTNB-based spectrophotometric analysis
[3] = Inhibition of Pseudomonas aeruginosa arylamine N-acetyltransferase
[4] = system: Mycobacterium tuberculosis; assay: Antimycobacterial activity against Mycobacterium tuberculosis after 28 days; type: functional; settings: 672 h
[5] = Competitive inhibition of Mycobacterium marinum recombinant arylamine N-acetyltransferase-mediated acetyl coA hydrolysis by DTNB-based spectrophotometric analysis

SMILES	IC50 [1] [µM]	inhibition [2] [%]	IC50 [3] [µM]	MIC [4] [µM]	Ki [5] [µM]
Oc1ccc(F)cc1-c1cc(-c2ccc(F)cc2)[nH]n1	> 30	32.7	–	–	–
COc1ccc(-c2cc(-c3cc(OC)ccc3O)[nH]n2)cc1	18.5	65.8	9.7	34 (≈ 10.1 µg/mL)	23.2
COc1ccc(-c2cc(-c3cc(F)ccc3O)n[nH]2)cc1	> 30	46.5	–	–	–
COc1ccc(O)c(-c2cc(-c3ccc(F)cc3)[nH]n2)c1	21.3	59.2	–	–	–
COc1ccc(-c2cc(-c3cc(O)ccc3O)n[nH]2)cc1	> 30	21.5	–	–	–
Fc1ccc(-c2cc(-c3cc(F)ccc3F)n[nH]2)cc1	> 30	29.7	–	–	–
COc1ccc(-c2cc(-c3cc(O)cc(O)c3)n[nH]2)cc1	> 30	15.6	–	–	–
COc1ccc(OC)c(-c2cc(-c3ccccc3)[nH]n2)c1	11.7	50.7	–	–	–
COc1ccc(-c2cc(-c3ccccc3)n[nH]2)cc1	> 30	26.5	–	–	–
COc1ccc(-c2cc(-c3cc(F)ccc3F)n[nH]2)cc1	> 30	18.9	–	–	–
c1ccc(-c2cc(-c3ccccc3)[nH]n2)cc1	> 30	45.2	–	–	–
Fc1ccc(F)c(-c2cc(-c3ccccc3)[nH]n2)c1	18.8	53.5	–	–	–
COc1ccc(-c2cc(-c3cccc(OC)c3)n[nH]2)cc1	> 30	26.5	–	–	–
COc1ccc(-c2cc(-c3cc(OC)ccc3OC)n[nH]2)cc1	> 30	29.2	–	–	–
COc1ccc(O)c(-c2cc(-c3ccccc3)[nH]n2)c1	12.9	53.9	–	–	–
COc1cccc(-c2cc(-c3ccc(F)cc3)[nH]n2)c1	17.6	61.2	–	–	–
